How the values were obtained:
[1] = tested on: HFF cells; assay: Collagen I production in the presence of dexamethasone; format: cell-based, human
Procedure: Primary human foreskin fibroblast cells (HFF) were seeded into 96 well plates at a density of 1.2×10^4 cells/well and cultured overnight in 10% fetal bovine serum/Dulbecco's minimum essential media (10% FBS/DMEM) at 37° C. and 5% CO2. The cells were then starved overnight in serum free DMEM and triplicate wells treated for six hours with a range of doses of proteins with peroxidase activity; horse radish peroxidase (HRP; 0.2-50 ug/ml), Arthromyces ramosus peroxidase (ARP; 0.2-50 ug/ml), microperoxidase (MP; 8-500 ug/ml), soy bean peroxidase (SBP; 0.2-100 ug/ml) and lactoperoxidase (LP; 10-310 ug/ml) (all obtained from Sigma-Aldrich). At the end of the six hour treatment period, the media was aspirated and replaced with fresh serum free DMEM and the cells cultured for a further 72 hours. After 72 hours the culture media was collected for assessment of secreted, soluble collagen types I, III and VI as well as fibronectin protein and the cells assessed for viability/growth using an alamar blue fluorescent dye assay. This assay measures the reduction of oxidized, blue nonfluorescent Alamar Blue reagent to a pink fluorescent dye in the cell medium, such that the higher the amount of reduction, the greater the cell number and/or activity (O'Brien Eur J Biochem 267 2000). Briefly, cells were bathed in a 10% Alamar Blue/phosphate-buffered saline (PBS) solution for 30-60 minutes and fluorescence measured at wavelengths of 485 nm excitation and 595 nm emission using a Wallac Victor Multilabel HTS counter. Relative fluorescent units (RFU) for each sample were normalized to control wells (DMEM only treated cells) and data expressed as mean±standard error of the mean (sem) for triplicate wells. Experiments were repeated at least three times with the combined data from all experiments shown.
The amount of soluble collagen types I, III, and VI in HFF conditioned media was measured by a direct coat ELISA method using standard curves constructed from purified human collagen I, III or VI (extracted from human placenta; col I, BD Biosciences; col III and VI, Rocklands Immunochemicals) and fibronectin (extracted from human plasma, Chemicon). Samples and standards (20 μl/well) were added to a 384 well spectraplate (Packard BioScience) and left at room temperature (RT) overnight. […] After a final wash (6×PBS-T), enhancement solution was added for at least 10 minutes and fluorescence measured at excitation 340 nm and emission 615 nm using a Wallac Victor Multilabel HTS counter. The respective ECM concentration of each sample was determined from the standard curve (μg/ml) and normalized to control wells (DMEM only treated cells) with the mean±sem for triplicate wells calculated. […]

[2] = tested on: HFF cells; assay: Fibroblast infiltration into INTEGRA scaffold (SMA immunohistochemistry); format: cell-based, human; conditions: 6 days
Text: INTEGRA® was cut into lcm x lcm pieces using a sterile scalpel, the pieces transferred to a petri dish using sterile forceps and washed four times each with PBS followed by serum-free DMEM, to remove the alcohol storage medium and to equilibrate the porous scaffold for exposure to cells. After the last wash, the INTEGRA® pieces were transferred to the wells of a 12 well tissue culture plate (collagen layer facing up) immersed in media containing proteins having peroxidase activity. This “pre-treatment” of the INTEGRA® with proteins having peroxidase activity was performed for up to 16 hours at 37° C. in a CO2 incubator. […]
Additional experiments were performed as described above using HFF cells and varying the period of application of the proteins having peroxidase activity to include a “pre-treatment” application only (ie INTEGRA® incubated with SBP 25 μg/ml for up to 16 hours prior to the addition of cells), a “pre-treatment” and “post-treatment” application (ie INTEGRA® pre-treated with SBP and SBP added to the culture media once the INTEGRA had been seeded with cells) and a “post-treatment” application only (ie SBP added to the culture media once the INTEGRA® had been seeded with cells). The INTEGRA® was harvested after 6 days in culture and the number of SMA-positive fibroblast cells counted in five representative fields of view of sections from each condition.

Substance	increase in collagen I levels ([1]; 3.1-25 μg/ml, no dexamethasone)	collagen accumulation in cells treated with both dexamethasone and ARP ([1]; dexamethasone 20 μM)	number of fibroblast cells infiltrating and populating the INTEGRA ([2]; SBP 25 μg/ml pre-, pre+post- or post-treatment, versus 10% FBS control)	penetration of HFF cells into the scaffold ([2]; SBP 25 μg/ml, controls limited to about the top third)
Arthromyces ramosus peroxidase [ARP]	4.5-7 fold	significant levels of collagen accumulation were still evident		
soy bean peroxidase [SBP]			major influence on the number of fibroblast cells infiltrating and populating	penetrated the full thickness of the scaffold

From patent US20100239556A1, “PROMOTING ECM PRODUCTION BY FIBROBLAST CELLS AND/OR PROMOTING MIGRATION OF FIBROBLAST CELLS IN A BIOLOGICAL SYSTEM” (TGR BioScience Pty Ltd., priority 2006, published 2010)
